In assay [1] the test system is male Wistar rats. The experiment in a line: Experiment 3: left ventricular diastolic function by tissue Doppler imaging. It counts as in vivo, rat. The settings on record: 0.3 mg/kg i.v. over 30 s then 0.02 mg/kg/min for 20 min. As for the experimental part:
In this experiment on the invention, two 9-week old male Wistar rats weighing 310 and 320 g were used. The rats were anesthetized with 1,000 mg/kg of urethane and 80 mg/kg of α-chloralose by subperitoneal injection, and natural respiration was maintained. In this experiment, 100 mg of the compound was dissolved in 1 ml of dimethylsulfoxide (DMSO) and the resulting DMSO solution was stored at 4° C. Norepinephrine solution was prepared by dissolving 1 mg of norepinephrine in 41 μl of distilled water.
Similarly to Test drug 1, this study was performed at room temperature of 20 to 25° C., and also similarly to Test drug 1, continuous infusion catheters of calcium chloride solution or norepinephrine solution containing calcium chloride were inserted into the right external jugular vein and microchip catheters (SPC-320, Millar) were inserted into the aorta via the right common arteries.
A 1-lead electrocardiogram was recorded, and blood pressure, pulse, and electrocardiogram of the rats were monitored for 15 minutes and allowed to stabilize. In the preparation step, calcium chloride dissolved in 5% dextrose solution was infused into the right external jugular vein for 25 minutes at 16.6 μl/min (9.0 mg/kg/min of calcium chloride).
Secondly, immediate injection (intravenous injection) of a solution containing calcium chloride and norepinephrine without changes in dosage was started via the right external jugular vein at a rate of 40 μg/kg/min. After the start of administration, calcium chloride and norepinephrine were continuously injected in the form of a norepinephrine solution containing calcium chloride. Furthermore, with continuous injection of calcium chloride and norepinephrine (in the form of a norepinephrine solution containing calcium chloride), 0.2 ml of 1% DSMO was administered alone over 30 seconds to the first rat (weight: 310 g) as a control via the right femoral vein, 5 minutes after commencement of intravenous injection of calcium chloride and norepinephrine (in the form of a norepinephrine solution containing calcium chloride); this rat was defined as Control 4. Similarly to Control 4, with continuous injection of calcium chloride and norepinephrine (in the form of a norepinephrine solution containing calcium chloride) 0.2 ml of 1% DSMO solution containing 0.3 mg/kg of the test drug in the invention was administered over 30 seconds to a second rat (weight: 320 g; Test drug 3) via its right femoral vein, followed by administration for 20 minutes at 0.02 mg/kg/min, 5 minutes after intravenous injection of calcium chloride and norepinephrine (in the form of a norepinephrine solution containing calcium chloride). The left ventricular diastolic function of each rat was examined using tissue Doppler ultrasonography. Ultrasonic diagnostic equipment (Toshiba Powervision SSA-380APSK-70LT, Toshiba Corporation) was used and the rats were examined using ultrasound at 10 MHz. Firstly, the precordial region of each rat was shaved, and an ECHO probe was placed on the cardiac apex. The long axis of the left ventricle of the cardiac apex was imaged, a sample volume for pulsed-wave Doppler was established at the base of the posterior mitral leaflet, and the velocity of the left ventricular posterior wall motion [Ea wave (m/sec)] was measured at diastole as the left ventricular diastolic function. In this experiment, the left ventricular diastolic function is defined as the ratio of the velocity of the left ventricular wall motion at diastole before intravenous injection of norepinephrine (before administration; i.e. a normal left ventricular wall) determined using tissue Doppler imaging, or the ratio of the velocity of the left ventricular wall motion at diastole after intravenous injection of norepinephrine (after administration).

Assay [2] relates to male Wistar rats. The experiment in a line: Experiment 2: effect of the compound on blood pressure in rats under calcium chloride and norepinephrine infusion. The class given is in vivo, rat. Here is the method: Eight-week old male Wistar rats weighing 310-330 g were used in this experiment. The rats were anesthetized with 1,000 mg/kg of urethane and 80 mg/kg of α-chloralose by subperitoneal injection, and natural respiration was maintained. In this experiment, 100 mg of the compound was dissolved in 1 ml of dimethylsulfoxide (DMSO) and the resulting DMSO solution of the compound was stored at 4° C. Norepinephrine solution was prepared by dissolving 1 mg of norepinephrine in 41 μl of distilled water.
Similarly to Experiment 1, this experiment was performed at 20 to 25° C. Furthermore, similarly to Experiment 1, continuous infusion catheters of calcium chloride solution or norepinephrine solution containing calcium chloride were inserted into the right external jugular veins of the rats, and microchip catheters (SPC-320, Millar) were inserted into the aorta via the right common arteries.
A 1-lead electrocardiogram and the systolic pressure and diastolic pressure were recorded on a personal computer via an A/D converter. In the preparation step, blood pressure, pulse, and electrocardiogram of the rats were monitored for 15 minutes and allowed to stabilize, and then 5% dextrose solution containing calcium chloride (at a concentration based on the weight of the rat) was infused into the right external jugular vein for 25 minutes at 16.6 μl/min (9.0 mg/kg/min of calcium chloride).
Secondly, norepinephrine solution containing calcium chloride without changes in the dosage regimen was immediately injected at a rate of 40 μg/kg/min (in the form of a norepinephrine solution containing calcium chloride). Five minutes after commencement of injection (intravenous injection) of norepinephrine, continuous injection of calcium chloride and norepinephrine in the form of a norepinephrine solution containing calcium chloride was started, and 0.2 ml of 1% DMSO solution as a solvent control was administered over 30 seconds to the first rat (weight: 310 g) via the right femoral vein; this rat was defined as Control 3. After the solvent control was injected, 1% DMSO solution as a solvent control was additionally administered to Control 3 at 10 μl/min from commencement of solvent control injection to 15 minutes after the start of administration. Similarly to Control 3, 5 minutes after commencement of injection (intravenous injection) of norepinephrine in the form of a norepinephrine solution containing the calcium chloride, continuous injection of the calcium chloride and norepinephrine in the form of a norepinephrine solution containing calcium chloride was started, and 0.2 ml of 1% DMSO solution containing 0.3 mg/kg of the compound was administered over 30 seconds to a second rat (weight: 330 g; referred to as Test drug 3), and 1% DMSO solution containing 0.02 mg/kg of the test drug was then administered for 14 minutes at a rate of 0.02 mg/kg/min. Systolic pressure (mmHg) and diastolic pressure (mmHg) of each rat were measured at 20 heart beats every 2 minutes for 14 minutes after commencement of intravenous injection of the test drug. Mean blood pressure was calculated from the measured systolic pressure (mmHg) and diastolic pressure (mmHg) according to the following formula: mean blood pressure=[…].

This is an account of results in patent publication US20070219180A1, “Muscle Relaxtion Accelerator and Therapeutic Agent for Muscular Tissue Diseases Such as Muscle Relaxation Failure” (priority 2004, published 2007).

As to `COc1ccc2c(c1)CN(C(=O)CCN1CCC(Cc3ccccc3)CC1)CCS2` [the compound, 4-[3-(4-benzylpiperidine-1-yl)propionyl]-7-methoxy-2,3,4,5-tetrahydro-1,4-benzothiazepine], the “Ratio of the velocity of the left ventricular wall motion at diastole” value was 1.00 in the assay on male Wistar rats [1] (0 minutes (just before the start of intravenous injection of the test drug)); 1.02 in the assay on male Wistar rats [1] (CaCl2 + norepinephrine infusion, 5 minutes after the start of test drug); 1.04 with male Wistar rats [1] (CaCl2 + norepinephrine infusion, 10 minutes after the start of test drug); 1.00 with male Wistar rats [1] (CaCl2 + norepinephrine infusion, 15 minutes after the start of test drug); 1.00 in the assay with male Wistar rats [1] (CaCl2 + norepinephrine infusion, 20 minutes after the start of test drug); 0.94 with male Wistar rats [1] (CaCl2 + norepinephrine infusion, 25 minutes after the start of test drug). The “Ratio of the velocity of the left ventricular wall motion at diastole” value came out at 0.95 with male Wistar rats [1] (CaCl2 + norepinephrine infusion, 30 minutes after the start of test drug) and 1.00 in the assay with male Wistar rats [1] (Ea wave relative to before norepinephrine, 5 minutes before test drug (just before the start of norepinephrine), baseline). For the same compound, the Mean blood pressure amounted to 136 mmHg in the assay with male Wistar rats [2] (Test drug 3: 0.3 mg/kg i.v. over 30 s then 0.02 mg/kg/min for 14 min, 0 minutes (just before the start of test drug administration)); 125 mmHg in the assay with male Wistar rats [2] (Test drug 3: 0.3 mg/kg i.v. over 30 s then 0.02 mg/kg/min for 14 min, 5 minutes before test drug (just before the start of norepinephrine), baseline); 122 mmHg with male Wistar rats [2] (Test drug 3: 0.3 mg/kg i.v. over 30 s then 0.02 mg/kg/min for 14 min, 30 minutes before test drug (5 minutes before the start of CaCl2), baseline); 149 mmHg with male Wistar rats [2] (Test drug 3: 0.3 mg/kg i.v. over 30 s then 0.02 mg/kg/min, CaCl2 + norepinephrine infusion, 2 minutes after the start of test drug administration); 162 mmHg in the assay with male Wistar rats [2] (Test drug 3: 0.3 mg/kg i.v. over 30 s then 0.02 mg/kg/min, CaCl2 + norepinephrine infusion, 4 minutes after the start of test drug administration); 141 mmHg in the assay with male Wistar rats [2] (Test drug 3: 0.3 mg/kg i.v. over 30 s then 0.02 mg/kg/min, CaCl2 + norepinephrine infusion, 6 minutes after the start of test drug administration). The Mean blood pressure turned out to be 139 mmHg in the assay with male Wistar rats [2] (Test drug 3: 0.3 mg/kg i.v. over 30 s then 0.02 mg/kg/min, CaCl2 + norepinephrine infusion, 8 minutes after the start of test drug administration); 135 mmHg in the assay on male Wistar rats [2] (Test drug 3: 0.3 mg/kg i.v. over 30 s then 0.02 mg/kg/min, CaCl2 + norepinephrine infusion, 10 minutes after the start of test drug administration); 136 mmHg with male Wistar rats [2] (Test drug 3: 0.3 mg/kg i.v. over 30 s then 0.02 mg/kg/min, CaCl2 + norepinephrine infusion, 12 minutes after the start of test drug administration); 134 mmHg in the assay with male Wistar rats [2] (Test drug 3: 0.3 mg/kg i.v. over 30 s then 0.02 mg/kg/min, CaCl2 + norepinephrine infusion, 14 minutes after the start of test drug administration).
